Measurements from US5145954A, “Derivatives of alphaphenylacrylic acid and their use in agriculture” (Imperial Chemical Industries PLC, priority 1986, dated 1992).

What was measured:
Type in all cases: in vivo
Venturia inaequalis = assay: foliar fungal disease test on plants, Venturia inaequalis (apple); conditions: 100 ppm foliar spray plus root drench ca. 40 ppm a.i./dry soil; protectant
Pyricularia oryzae = conditions: 100 ppm foliar spray plus root drench ca. 40 ppm a.i./dry soil; protectant
Puccinia recondita = assay: foliar fungal disease test on plants, Puccinia recondita (wheat); conditions: 100 ppm foliar spray plus root drench ca. 40 ppm a.i./dry soil; protectant
Plasmopara viticola = assay: foliar fungal disease test on plants, Plasmopara viticola (vine); conditions: 100 ppm foliar spray plus root drench ca. 40 ppm a.i./dry soil; protectant
Erysiphe graminis = assay: foliar fungal disease test on plants, Erysiphe graminis (barley); conditions: 100 ppm foliar spray plus root drench ca. 40 ppm a.i./dry soil; inoculated 24 hours before treatment
Cercospora arachidicola = assay: foliar fungal disease test on plants, Cercospora arachidicola (peanut); conditions: 100 ppm foliar spray plus root drench ca. 40 ppm a.i./dry soil; protectant
Wheat = assay: whole plant screen for plant growth regulating activity, wheat; conditions: 4000 ppm (4 kg/ha), after 2-6 weeks
Procedure: (§1) These compounds were tested on a whole plant screen for plant growth regulating activity against six species of plant. The plant species used in this screen are presented in Table VIII with the leaf stage at which they were sprayed.
(§2) A formulation of each chemical was applied at 4000 ppm (4 kg/ha in a 1000 1/ha field volume) using a tracksprayer and a SS8004E (Teejet) nozzle. Additional tests were done on tomatoes at 2000 and 500 ppm.
(§3) After spraying, the plants were grown in a glasshouse with 25° C. day/22° C. night temperatures. The exception to this were the temperate cereals, wheat and barley which were grown in 13°-16° C. day/11°-13° C. night temperatures. Supplementary lighting was supplied when necessary to provide an average photoperiod of 16 hours (14 hours minimum).
(§4) After 2-6 weeks in the glasshouse, depending on species and time of year, the plants were visually assessed for morphological characteristics against a control plant sprayed with a blank formulation.
Wheat WW Timmo 1-1.5 leaves

Tomato = assay: whole plant screen for plant growth regulating activity, tomato; design: key to greening effect, TO* / greening effect, TO^+ / apical damage, TO* / tillering or side shooting, TO* / apical damage, TO^+ / tillering or side shooting, TO^+: Greening effect; Apical damage; Tillering or side shooting; conditions: after 2-6 weeks
Procedure: as §1, §2, §3, §4
To- TO Ailsa 2-21/2 leaves

Maize = assay: whole plant screen for plant growth regulating activity, maize; design: key: Greening effect; Apical damage; Tillering or side shooting; conditions: 4000 ppm (4 kg/ha), after 2-6 weeks
Procedure: as §1, §2, §3, §4

Rice = assay: whole plant screen for plant growth regulating activity, rice; conditions: 4000 ppm (4 kg/ha), after 2-6 weeks
Procedure: as §1, §2, §3, §4
Rice RC Ishikari 2-21/2 leaves

Heliothis virescens = assay: insecticidal test HV, tobacco budworm larvae, residual; conditions: 500 ppm, cotton leaf, duration 3
Procedure: (§5) The activity of the compound was determined using a variety of insect, mite and nematode pests. The compound was used in the form of liquid preparations containing from 100 to 500 parts per million (ppm) by weight of the compound. The preparations were made by dissolving the compound in acetone and diluting the solutions with water containing 0.1% by weight of a wetting agent sold under the trade name "SYNPERONIC" NX until the liquid preparations contained the required concentration of the product. "SYNPERONIC" is a Registered Trade Mark.
(§6) The test procedure adopted with regard to each pest was basically the same and comprised supporting a number of the pests on a medium which was usually a host plant or a foodstuff on which the pests feed, and treating either or both the pests and the medium with the preparations. The mortality of the pests was then assessed at periods usually varying from one to seven days after the treatment. […]

Musca domestica [1] = assay: whole plant or invertebrate
Procedure: A sample of compound 9 was diluted in 2 mls acetone and made up to a 2000 ppm solution with 0.1% aqueous synperonic solution. The solution (1 ml) was then sprayed directly onto twenty mixed sex houseflies held in a drinking cup. Immediately after spraying the cups were inverted and left to dry. An assessment of knockdown was made when the cups were righted 15 minutes later. The flies were then provided with a 10% sucrose solution on a cotton wool pad, and held for 48 hours in a holding room conditioned at 25° C. and 65% relative humidity before a mortality assessment was made.

Blattella germanica = assay: insecticidal test BG, cockroach nymphs, residual; conditions: 500 ppm, plastic pot, duration 3
Procedure: as §5, §6

Nilaparvata lugens = assay: insecticidal test NL, brown plant hopper nymphs, contact; conditions: 500 ppm, rice plant, duration 3
Procedure: as §5, §6

[2] = system: Tetranychus urticae (spider mites - ova); assay: insecticidal test TUe, spider mites ova, contact; conditions: 500 ppm, French bean leaf, duration 6
Procedure: as §5, §6

Spodoptera exigua = assay: insecticidal test SP, lesser army worm larvae, residual; conditions: 500 ppm, cotton leaf, duration 3
Procedure: as §5, §6

Meloidogyne incognita = assay: nematode test MI, tomato root knot eelworm larvae, semi in-vitro, residual; conditions: 125 ppm, duration 7
Procedure: as §5, §6

[3] = system: Tetranychus urticae (spider mites - adult); assay: insecticidal test TUa, spider mites adult, contact; conditions: 500 ppm, French bean leaf, duration 3
Procedure: as §5, §6

Diabrotica balteata = assay: insecticidal test DB, rootworm larvae, residual; conditions: 500 ppm, filter paper/maize seed, duration 3
Procedure: as §5, §6

Musca domestica [4] = assay: insecticidal test MD, houseflies adults, contact; conditions: 500 ppm, cotton wool/sugar, duration 1
Procedure: as §5, §6

Myzus persicae = assay: insecticidal test MP, aphids, contact; conditions: 500 ppm, Chinese cabbage leaf, duration 3
Procedure: as §5, §6

SMILES | disease control grade, VENTURIA INAEQUALIS (Apple) (Venturia inaequalis) | disease control grade, P[…] (Rice) (Pyricularia oryzae) | disease control grade, PUCCINIA RECONDITA (Wheat) (Puccinia recondita) | disease control grade, PLASMOPARA VITICOLA (Vine) (Plasmopara viticola) | disease control grade, ERYSIPHE GRAMINIS (Barley) (Erysiphe graminis) | disease control grade, CERCOSPORA ARACHIDICOLA (Peanut) (Cercospora arachidicola) | greening effect, TO^+ (Tomato; 500 ppm) | retardation, TO^+ (Tomato; 500 ppm) | retardation, TO* (Tomato; 2000 ppm) | also measured
COC(=O)/C(=C\SC)c1ccccc1/C=C/c1ccccc1 [10 of Table I] | 4 | 3 (trace - 5% of disease on untreated plants) | 2 (6-25% of disease on untreated plants) | 4 | 0 (60-100% of disease on untreated plants) | 4 |  |  |  | 
COC(=O)/C(=C/SC)c1ccccc1Oc1ccccc1 [1 of Table II] | 4 | 2 (6-25% of disease on untreated plants) | 4 | 4 | 3 (trace - 5% of disease on untreated plants) | 0 (60-100% of disease on untreated plants) | G | 1 (10-30%) | 1 (10-30%) | retardation, WW (Wheat): 1 (10-30%)
COC(=O)/C(=C/SC)c1ccccc1CCc1ccc(F)cc1 [96 of Table I] | 3 (trace - 5% of disease on untreated plants) | 0 (60-100% of disease on untreated plants) | 0 (60-100% of disease on untreated plants) | 0 (60-100% of disease on untreated plants) | 0 (60-100% of disease on untreated plants) | 0 (60-100% of disease on untreated plants) | G |  | 1 (10-30%) | apical damage, MZ (Maize): A; greening effect, MZ (Maize): G
COC(=O)/C(=C\SC)c1ccccc1 [2 of Table I] | 0 (60-100% of disease on untreated plants) | 0 (60-100% of disease on untreated plants) | 0 (60-100% of disease on untreated plants) | 1 (26-59% of disease on untreated plants) | 0 (60-100% of disease on untreated plants) | 0 (60-100% of disease on untreated plants) | G | 2 (21-60%) | 1 (10-30%) | retardation, RC (Rice): 1 (10-30%); greening effect, TO* (Tomato; 2000 ppm): G
COC(=O)/C(=C/SC)c1ccccc1/C=C/c1ccccc1 [Compound 9 of Table I] |  |  |  |  |  |  |  |  |  | grading of mortality, HV (Heliothis virescens): 0 (less than 50% mortality); knockdown (Musca domestica [1]; 1 ml of 2000 ppm solution sprayed on twenty houseflies, assessed 15 minutes later): 88%; mortality at 2000 ppm (Musca domestica [1]; Musca domestica, topical, 48 h, read-out: kill): 15%; grading of mortality, BG (Blattella germanica): 0 (less than 50% mortality); grading of mortality, NL (Nilaparvata lugens): 0 (less than 50% mortality); grading of mortality, TUE [2]: 0 (less than 50% mortality); grading of mortality, SP (Spodoptera exigua): 0 (less than 50% mortality); grading of root knot reduction, MI* (Meloidogyne incognita): 9 (70-100% root knot reduction as compared to an untreated plant for Meloidogyne incognita); grading of mortality, TUA [3]: 0 (less than 50% mortality); grading of mortality, DB (Diabrotica balteata): 5 (50-79% mortality); grading of mortality, MD (Musca domestica [4]): 5 (50-79% mortality); grading of mortality, MP (Myzus persicae): 0 (less than 50% mortality)
COC(=O)/C(=C/SC)c1ccccc1/C=C/c1ccccc1 [9 of Table I] | 4 | 4 | 3 (trace - 5% of disease on untreated plants) | 0 (60-100% of disease on untreated plants) | 0 (60-100% of disease on untreated plants) | 1 (26-59% of disease on untreated plants) | G |  |  | apical damage, TO^+ (Tomato; 500 ppm): A; tillering or side shooting, TO^+ (Tomato; 500 ppm): T; apical damage, TO* (Tomato; 2000 ppm): A; greening effect, TO* (Tomato; 2000 ppm): G; tillering or side shooting, TO* (Tomato; 2000 ppm): T
COC(=O)/C(=C/SC)c1ccccc1 [1 of Table I] | 0 (60-100% of disease on untreated plants) | 1 (26-59% of disease on untreated plants) | 0 (60-100% of disease on untreated plants) | 0 (60-100% of disease on untreated plants) | 0 (60-100% of disease on untreated plants) | 0 (60-100% of disease on untreated plants) |  | 1 (10-30%) | 1 (10-30%) | retardation, RC (Rice): 2 (21-60%)
